Results published in patent publication US10975352B2, “Methods of enhancing cell survival of stem cells” (The Scripps Research Institute, priority 2008, dated 2021).

Assays:
hESCs [1] = assay: ALP positive colony formation / low-density survival assay of dissociated hESCs on Matrigel; type: cell-based, human; conditions: adherent culture (e.g. Matrigel-coated plate)
Experimental: Human ESC lines H1, HUES7 and HUES9 were cultured on irradiated MEF feeder cells in DMEM-F12 supplemented with 2 mM L-glutamine, lx nonessential amino acids, 20% serum replacement (Invitrogen) and 10 ng/ml basic Fibroblast growth factor (Invitrogen). Chemically-defined and feeder-free hESC culture was described previously (Yao, S. et al., Proc Natl Acad Sci USA 103 (18):6907-6912 (2006)). Briefly, hESCs were grown on Matrigel-coated tissue culture plates in N2B27-CDM (DMEM-F12 supplemented with 1×N2 supplements, lx B27 supplements, 2 mM L-glutamine, 0.11 mM 2-mercaptoethanol, lx nonessential amino acids, and 0.5 mg/ml BSA (fraction V)) and 20 ng/ml bFGF. Human ESCs were passaged every 5-6 days with 0.05% trypsin.
For clonal survival assays, single hESCs were diluted to clonal density and plated onto 96-well Matrigel-coated plate. For low-density survival assays, 500 cells were plated onto 96-well Matrigel-coated plate. To visualize hESC colonies, cultures were fixed in 4% paraformaldehyde in PBS for 5 min, washed once in PBS, then stained for alkaline phosphatase activity as described in manufacturer's instructions. ALP positive colonies were counted on an inverted microscope.
ALP detection kit and integrin antibodies were from Chemicon. AG825 (Erb2 inhibitor), AG1478 (EGFR inhibitor), PPP (IGFR1 inhibitor) were purchased from Calbiochem. Antibodies raised against the intracytoplasmic tail of E-cadherins (Transduction Laboratories, Lexington, Ky.) were used for immunoprecipitation. The antibody TS2/16 was from Pierce. Antibodies to the extracellular domain of E-cadherin molecule were from Zymed (Carlsbad). Antibodies against extracellular signal-regulated kinase/MAPK, EGFR1, ERB2, GADPH and phosphorylated form of AKT were from Cell Signaling. Mouse monoclonal anti-phosphotyrosine (4G-10 clone) was from Upstate Biotechnology. Ptn and Tzv were added to culture medium at 2 μM. […]

hESCs [2] = assay: Cell adhesion assay; type: cell-based, human
Experimental: Cell adhesion assays were performed in 96-well microtiter plates coated with Matrigel. After trypsin, hESCs were resuspended in the chemically-defined media containing the desired compounds. Cells were then added to the microtiter wells and incubated for 3 h at 37° C. Unbound and loosely bound cells were removed by shaking and washing, and the remaining cells were then fixed immediately. The wells were washed 3 times with 200 μl of H2O, and attached cells were stained with Crystal Violet (Sigma). The absorbance of each well at 570 nm was then measured. For experiments with blocking antibodies, cells were pre-incubated with antibodies on ice for 30 min, and adhesion assays were performed in the presence of antibodies. Each sample was assayed independently for three times.

stem cells = assay: Survival and anti-differentiation of stem cells ex vivo; type: cell-based; conditions: human and mouse embryonic, neural, skin, mesenchymal, hematopoietic, stromal and epithelial stem cells; contact immediately after isolation
From the text: In some embodiments, the invention provides methods of promoting survival and anti-differentiation in stem cells ex-vivo.

[3] = test system: E-cadherins, EGFR1 and ERB2; assay: Immunoprecipitation of E-cadherins with EGFR1 and Erb2; type: cell-based, human
From the text: Interplay between physical/structural environment and growth factor plays a very important role in cell fate regulation (Comoglio, P. M., Boccaccio, C., & Trusolino, L., Curr Opin Cell Biol 15 (5):565-571 (2003)). To examine whether growth factors are involved in integrin-mediated hESC survival, we treated dissociated hESCs with Tzv or Ptn together with individual highly specific growth factor receptor inhibitors. […] Similarly inhibition of FGFR, IGFR, EGFR1 or Erb2 also greatly abolished Tzv-induced hESC survival in suspension culture.
ALP detection kit and integrin antibodies were from Chemicon. AG825 (Erb2 inhibitor), AG1478 (EGFR inhibitor), PPP (IGFR1 inhibitor) were purchased from Calbiochem. Antibodies raised against the intracytoplasmic tail of E-cadherins (Transduction Laboratories, Lexington, Ky.) were used for immunoprecipitation. The antibody TS2/16 was from Pierce. Antibodies to the extracellular domain of E-cadherin molecule were from Zymed (Carlsbad). Antibodies against extracellular signal-regulated kinase/MAPK, EGFR1, ERB2, GADPH and phosphorylated form of AKT were from Cell Signaling. Mouse monoclonal anti-phosphotyrosine (4G-10 clone) was from Upstate Biotechnology. Ptn and Tzv were added to culture medium at 2 μM.

[4] = test system: primary human pancreatic islets/beta cells; assay: Cell death of dispersed primary human pancreatic islets/beta cells; type: cell-based; conditions: plate coated with matrigel or laminin; 1-2 mM in media
Experimental: For example, the inventors dispersed primary human pancreatic islets/beta cells plated as single cells onto a tissue culture plate that was coated with matrigel or laminin. […] Accordingly, in some embodiments, a compound of the present invention is administered to an individual in need of pancreatic beta and/or islet cells, wherein administration of the compound results in an increase in the number of beta or islet cells in the individual.

E-cadherin = assay: Endocytosis assay; type: cell-based, human
Experimental: hESCs were incubated with 1.5 mg/ml sulfosuccinimidyl 2-(biotinamido) ethyl-dithioproprionate (sulfo-NHS-SS-biotin) (Pierce Chemical Co.) on ice, followed by washing and quenching. Endocytosis of E-cadherin was initiated by Ca^2+ depletion and 37° C. incubation. Cells were then incubated in two 20-min washes of glutathione solution (60 mM glutathione, 0.83 M NaCl, with 0.83 M NaOH and 1% BSA added before use) at 0° C. which removed all cell surface biotin groups. Remaining biotinylated proteins were sequestered inside cells by endocytosis and were therefore protected from glutathione stripping. Biotinylated proteins were recovered on streptavidin beads and analyzed by SDS-PAGE. E-Cadherins were detected by immunoblotting. Total level of surface E-cadherin before endocytosis was used as reference.

hESCs [5] = assay: Cell death analysis of dissociated hESCs in suspension culture; type: cell-based, human
From the text: hESCs are known to be difficult in forming embryoid bodies (EBs) in suspension culture after single cell dissociation due to extensive cell death. Thus, we also tested whether Tzv or Ptn could promote survival of dissociated hESCs in suspension. […] Because cell aggregation is most often mediated through cell-cell adhesions and E-cadherin is the primary cell-cell adhesion molecule, as well as highly expressed in hESCs (Eastham, A. M. et al., Cancer Res 67 (23): 11254-11262 (2007)), we tested the effect of a specific E-cadherin blocking antibody on multicellular aggregate formation.
The hESCs under different treatments were dissociated by trypsin and fixed by 4% paraformaldehyde. And the staining was carried out according to the manufacturer's instructions (MBL Laboratories, Watertown, Mass.). After staining, samples were analysed by flow cytometry using a FACS Calibur flow cytometer (BD).

O=C(NCc1ccccc1)c1csc(Nc2ccncn2)n1 [Tzv, N-benzyl-2-(pyrimidin-4-ylamino)thiazole-4-carboxamide]
survival of dissociated hESCs in adherent culture (hESCs [1]): greatly improved survival | adhesion of dissociated hESCs to Matrigel or laminin (hESCs [2]): dramatically increased adhesion | adhesion of hESCs to gelatin or poly-lysine (hESCs [2]): not affected | survival and anti-differentiation of stem cells (stem cells): effective in promoting survival and anti-differentiation | binding of E-cadherins to EGFR1 and ERB2 [3]: induced binding of E-cadherins to EGFR1 and ERB2 | cell death of single primary beta cells [4]: cell death was inhibited | internalization of E-cadherins (E-cadherin): significantly blocked | survival of dissociated hESCs in suspension culture (hESCs [5]): greatly improved survival
